Source: ChEMBL document CHEMBL4842340, “Development of Cagrilintide, a Long-Acting Amylin Analogue” (J Med Chem, 2021)
In brackets after ≈: the same amount, converted by molar mass. *1 amine or outer side, *2 acyl side, *3 side chain or, on linkers, in order; H or OH if unused. Where a SMILES comes first, the peptide text is derived from it. Bridges are numbered along the chain shown (N, C = ends). The star is where a group is joined. C20 diacid = O=C(O)CCCCCCCCCCCCCCCCCCC(=O)*; γGlu = O=C(O)[C@H](CCC(=O)[*:2])N[*:1]

How the values were obtained:
Rattus norvegicus [1] = species on record: Rattus norvegicus; experiment: Ratio of EC50 for rat calcitonin receptor expressed in BHK-13 cells to EC50 for rat AMY3R (CT+RAMP3) expressed in tk-ts13 cells; type: cell-based
[2] = Displacement of [125I]-amylin from human AMY3R (CTR+RAMP3) expressed in BHK-13 cells measured after 120 mins by scintillation proximity assay; type: cell-based
Insulin (Homo sapiens) [3] = target: Insulin (Homo sapiens) (UniProt P01308); experiment: Effect on insulin (unknown origin) amyloid fibril formation assessed as lag time in glycyl-glycine buffer at pH 4 measured after 45 hrs by thioflavin-T fluorescence assay
Insulin (Homo sapiens), sequence (P01308 whole entry): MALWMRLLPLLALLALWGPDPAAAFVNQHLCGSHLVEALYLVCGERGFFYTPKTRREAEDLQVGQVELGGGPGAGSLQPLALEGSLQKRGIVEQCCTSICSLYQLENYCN

Rattus norvegicus [4] = experiment: Reduction in food intake in Sprague-Dawley rat at 3 nmol/kg, sc administered as single dose measured after 24 to 48 hrs relative to control; type: functional; design: scale not given: the % may be the effect or the level left; settings: time 24-48 hrs
Homo sapiens [5] = species on record: Homo sapiens; experiment: Ratio of IC50 for displacement of [125I]-calcitonin from human calcitonin receptor expressed in tk-ts 13 cells to IC50 for displacement of [125I]-amylin from human AMY3R (CTR+RAMP3) expressed in BHK-13 cells; type: cell-based
[6] = Displacement of [125I]-amylin from rat AMY3R (CTR+RAMP3) expressed in BHK-13 cells measured after 120 mins by scintillation proximity assay; type: cell-based
Insulin (Homo sapiens) [7] = target: Insulin (Homo sapiens) (UniProt P01308); experiment: Effect on insulin (unknown origin) amyloid fibril formation assessed as peptide recovery in glycyl-glycine buffer at pH 4 measured after 45 hrs by thioflavin-T fluorescence assay relative to control; design: concentration or dose not given beside the values
Rattus norvegicus [8] = experiment: Reduction in food intake in Sprague-Dawley rat at 3 nmol/kg, sc administered as single dose measured upto 24 hrs relative to control; type: functional; design: scale not given: the % may be the effect or the level left; settings: time hrs <=24
[9] = Solubility of the compound in bis-tris propane at pH 6 by UPLC analysis; type: physicochemical; settings: bis-tris propane buffer
[10] = Solubility of the compound in bis-tris propane at pH 6.5 by UPLC analysis; type: physicochemical; settings: bis-tris propane buffer
[11] = Agonist activity at human AMY3R (CT+RAMP3) expressed in Hollex1 cells incubated for 3 hrs by luminescence assay; type: cell-based; settings: Hollex1, 3 h
[12] = Displacement of [125I]-calcitonin from human calcitonin receptor expressed in tk-ts 13 cells measured after 120 mins by scintillation proximity assay; type: cell-based; settings: tk-ts13
[13] = Displacement of [125I]-calcitonin from rat calcitonin receptor expressed in tk-ts 13 cells measured after 120 mins by scintillation proximity assay; type: cell-based; settings: tk-ts13
Rattus norvegicus [14] = species on record: Rattus norvegicus; experiment: Ratio of IC50 for displacement of [125I]-calcitonin from rat calcitonin receptor expressed in tk-ts 13 cells to IC50 for displacement of [125I]-amylin from rat AMY3R (CTR+RAMP3) expressed in BHK-13 cells; type: cell-based
[15] = Agonist activity at human calcitonin receptor expressed in BHK570 cells assessed as increase in intracellular cAMP concentration incubated for 3 hrs in absence of albumin by CRE luciferase reporter gene assay; type: cell-based; settings: BHK570, 3 h
[16] = Solubility of the compound in lactate at pH 5 by UPLC analysis; type: physicochemical; settings: lactate buffer
[17] = Solubility of the compound in bis-tris propane at pH 8 by UPLC analysis; type: physicochemical; settings: bis-tris propane buffer
[18] = Agonist activity at rat AMY3R (CT+RAMP3) expressed in tk-ts13 cells assessed as increase in intracellular cAMP level incuabted for 25 mins by CRE luciferase reporter gene assay; type: cell-based; settings: tk-ts13, 25 min
[19] = Agonist activity at rat calcitonin receptor expressed in BHK-13 cells assessed as increase in intracellular cAMP concentration incubated for 25 mins by CRE luciferase reporter gene assay; type: cell-based; settings: BHK-13, 25 min
[20] = Solubility of the compound in bis-tris propane at pH 7.5 by UPLC analysis; type: physicochemical; settings: bis-tris propane buffer
[21] = Solubility of the compound in lactate at pH 3 by UPLC analysis; type: physicochemical; settings: lactate buffer
[22] = Solubility of the compound in lactate at pH 4 by UPLC analysis; type: physicochemical; settings: lactate buffer
[23] = Solubility of the compound in bis-tris propane at pH 7 by UPLC analysis; type: physicochemical; settings: bis-tris propane buffer
Homo sapiens [24] = species on record: Homo sapiens; experiment: Ratio of EC50 for human calcitonin receptor expressed in BHK570 cells to EC50 for human AMY3R (CT+RAMP3) expressed in Hollex1 cells; type: cell-based
Rattus norvegicus [25] = experiment: Reduction in food intake in Sprague-Dawley rat at 30 nmol/kg, sc administered as single dose measured after 24 to 48 hrs relative to control; type: functional; design: scale not given: the % may be the effect or the level left; settings: time 24-48 hrs
Rattus norvegicus [26] = experiment: Reduction in food intake in Sprague-Dawley rat at 30 nmol/kg, sc administered as single dose measured upto 24 hrs relative to control; type: functional; design: scale not given: the % may be the effect or the level left; settings: time hrs <=24

Row | SMILES | Ratio EC50 (Rattus norvegicus [1]) | IC50 [2] [nM] | TIME (Insulin (Homo sapiens) [3]) [h] | Activity (Rattus norvegicus [4]) [%] | Ratio IC50 (Homo sapiens [5]) | IC50 [6] [nM] | Activity (Insulin (Homo sapiens) [7]) [%] | Activity (Rattus norvegicus [8]) [%] | solubility [9] [µM] | solubility [10] [µM] | EC50 [11] [nM] | IC50 [12] [nM] | EC50 [15] [nM] | solubility [16] [µM] | EC50 [18] [nM] | EC50 [19] [nM] | solubility [21] [µM] | solubility [22] [µM] | solubility [23] [µM] | Ratio EC50 (Homo sapiens [24]) | other results
1 | CC[C@H](C)[C@H](NC(=O)[C@@H]1CCCN1C(=O)CNC(=O)[C@H](Cc1ccccc1)NC(=O)[C@H](CC(N)=O)NC(=O)[C@H](CC(N)=O)NC(=O)[C@H](CO)NC(=O)[C@H](CO)NC(=O)[C@H](Cc1cnc[nH]1)NC(=O)[C@H](Cc1cnc[nH]1)NC(=O)[C@H](CC(C)C)NC(=O)[C@H](Cc1ccccc1)NC(=O)[C@H](CCC(=O)O)NC(=O)[C@H](C)NC(=O)[C@H](CC(C)C)NC(=O)[C@H](CCCNC(=N)N)NC(=O)[C@H](CCC(N)=O)NC(=O)[C@@H](NC(=O)[C@H](C)NC(=O)[C@@H]1CSSC[C@H](NC(=O)[C@H](CCCNC(=N)N)NC(=O)CC[C@H](NC(=O)CCCCCCCCCCCCCCCCCCC(=O)O)C(=O)O)C(=O)N[C@@H](CC(N)=O)C(=O)N[C@@H]([C@@H](C)O)C(=O)N[C@@H](C)C(=O)N[C@@H]([C@@H](C)O)C(=O)N1)[C@@H](C)O)C(=O)N[C@@H](CC(C)C)C(=O)N1CCC[C@H]1C(=O)N1CCC[C@H]1C(=O)N[C@H](C(=O)N[C@@H](CC(N)=O)C(=O)N[C@H](C(=O)NCC(=O)N[C@@H](CO)C(=O)N[C@@H](CC(N)=O)C(=O)N[C@H](C(=O)N[C@@H](Cc1ccc(O)cc1)C(N)=O)[C@@H](C)O)C(C)C)[C@@H](C)O ({C20 diacid-γGlu}-RCNTATCATQRLAEFLHHSSNNFGPILPPTNVGSNTY-NH2; disulfide 2-7) | 3 | 0.192 | 12 | 53 | 0.2 | 0.029 | 26 | 56 | 200 (≈ 897 µg/mL) | 174 (≈ 780 µg/mL) | 0.121 | 0.039 | 0.107 | 200 (≈ 897 µg/mL) | 0.188 | 0.539 | 200 (≈ 897 µg/mL) | 200 (≈ 897 µg/mL) | 160 (≈ 717 µg/mL) | 1 | IC50 [13]: 0.087 nM; Ratio IC50 (Rattus norvegicus [14]): 3; solubility [17]: 200 µM (≈ 897 µg/mL); solubility [20]: 200 µM (≈ 897 µg/mL)
2 | CC[C@H](C)[C@H](NC(=O)[C@@H]1CCCN1C(=O)CNC(=O)[C@H](Cc1ccccc1)NC(=O)[C@H](CC(N)=O)NC(=O)[C@H](CC(N)=O)NC(=O)[C@H](CO)NC(=O)[C@H](CO)NC(=O)[C@H](Cc1c[nH]cn1)NC(=O)[C@H](Cc1cnc[nH]1)NC(=O)[C@H](CC(C)C)NC(=O)[C@H](Cc1ccccc1)NC(=O)[C@H](CCC(=O)O)NC(=O)[C@H](C)NC(=O)[C@H](CC(C)C)NC(=O)[C@H](CCCNC(=N)N)NC(=O)[C@H](CCC(N)=O)NC(=O)[C@@H](NC(=O)[C@H](C)NC(=O)[C@@H]1CSSC[C@H](NC(=O)[C@H](Cc2cnc[nH]2)NC(=O)CC[C@H](NC(=O)CCCCCCCCCCCCCCCCCCC(=O)O)C(=O)O)C(=O)N[C@@H](CC(N)=O)C(=O)N[C@@H]([C@@H](C)O)C(=O)N[C@@H](C)C(=O)N[C@@H]([C@@H](C)O)C(=O)N1)[C@@H](C)O)C(=O)N[C@@H](CC(C)C)C(=O)N1CCC[C@H]1C(=O)N1CCC[C@H]1C(=O)N[C@H](C(=O)N[C@@H](CC(N)=O)C(=O)N[C@H](C(=O)NCC(=O)N[C@@H](CO)C(=O)N[C@@H](CC(N)=O)C(=O)N[C@H](C(=O)N1CCC[C@H]1C(N)=O)[C@@H](C)O)C(C)C)[C@@H](C)O ({C20 diacid-γGlu}-HCNTATCATQRLAEFLHHSSNNFGPILPPTNVGSNTP-NH2; disulfide 2-7) | 1 | 0.293 | 26 | 67 | 1 | 0.074 | 100 | 68 | 200 (≈ 880 µg/mL) | 200 (≈ 880 µg/mL) | 0.091 | 0.264 | 0.067 | 200 (≈ 880 µg/mL) | 0.121 | 0.109 | 200 (≈ 880 µg/mL) | 200 (≈ 880 µg/mL) | 200 (≈ 880 µg/mL) | 1 | IC50 [13]: 0.134 nM; Ratio IC50 (Rattus norvegicus [14]): 2; solubility [17]: 200 µM (≈ 880 µg/mL); solubility [20]: 200 µM (≈ 880 µg/mL)
3 | CC[C@H](C)[C@H](NC(=O)[C@@H]1CCCN1C(=O)CNC(=O)[C@H](Cc1ccccc1)NC(=O)[C@H](CC(N)=O)NC(=O)[C@H](CC(N)=O)NC(=O)[C@H](CO)NC(=O)[C@H](CO)NC(=O)[C@H](Cc1cnc[nH]1)NC(=O)[C@H](CCCNC(=N)N)NC(=O)[C@H](CC(C)C)NC(=O)[C@H](Cc1ccccc1)NC(=O)[C@H](CCC(=O)O)NC(=O)[C@H](C)NC(=O)[C@H](CC(C)C)NC(=O)[C@H](CCCNC(=N)N)NC(=O)[C@H](CCC(N)=O)NC(=O)[C@@H](NC(=O)[C@H](C)NC(=O)[C@@H]1CSSC[C@H](NC(=O)[C@H](Cc2cnc[nH]2)NC(=O)[C@H](Cc2cnc[nH]2)NC(=O)[C@H](Cc2cnc[nH]2)NC(=O)CC[C@H](NC(=O)CCCCCCCCCCCCCCCCCCC(=O)O)C(=O)O)C(=O)N[C@@H](CC(N)=O)C(=O)N[C@@H]([C@@H](C)O)C(=O)N[C@@H](C)C(=O)N[C@@H]([C@@H](C)O)C(=O)N1)[C@@H](C)O)C(=O)N[C@@H](CC(C)C)C(=O)N1CCC[C@H]1C(=O)N1CCC[C@H]1C(=O)N[C@H](C(=O)N[C@@H](CC(N)=O)C(=O)N[C@H](C(=O)NCC(=O)N[C@@H](CO)C(=O)N[C@@H](CC(N)=O)C(=O)N[C@H](C(=O)N[C@@H](Cc1ccc(O)cc1)C(N)=O)[C@@H](C)O)C(C)C)[C@@H](C)O ({C20 diacid-γGlu}-HHHCNTATCATQRLAEFLRHSSNNFGPILPPTNVGSNTY-NH2; disulfide 4-9) | 82 |  | 45 |  |  |  | 50 |  | 200 (≈ 952 µg/mL) |  | 0.072 |  | 0.407 | 200 (≈ 952 µg/mL) | 0.082 | 6.76 | 200 (≈ 952 µg/mL) | 200 (≈ 952 µg/mL) | 9 (≈ 42.8 µg/mL) | 6 | Activity (Rattus norvegicus [25]): 45%; Activity (Rattus norvegicus [26]): 70%
4 | CC[C@H](C)[C@H](NC(=O)[C@H](CCC(=O)O)NC(=O)CNC(=O)[C@H](Cc1ccccc1)NC(=O)[C@H](CC(N)=O)NC(=O)[C@H](CC(N)=O)NC(=O)[C@H](CO)NC(=O)[C@H](CO)NC(=O)[C@H](CCCNC(=N)N)NC(=O)[C@H](Cc1cnc[nH]1)NC(=O)[C@H](CC(C)C)NC(=O)[C@H](Cc1ccccc1)NC(=O)[C@H](CCC(=O)O)NC(=O)[C@H](C)NC(=O)[C@H](CC(C)C)NC(=O)[C@H](CCCNC(=N)N)NC(=O)[C@H](CCC(N)=O)NC(=O)[C@@H](NC(=O)[C@H](C)NC(=O)[C@@H]1CSSC[C@H](NC(=O)[C@H](Cc2cnc[nH]2)NC(=O)CC[C@H](NC(=O)CCCCCCCCCCCCCCCCCCC(=O)O)C(=O)O)C(=O)N[C@@H](CC(N)=O)C(=O)N[C@@H]([C@@H](C)O)C(=O)N[C@@H](C)C(=O)N[C@@H]([C@@H](C)O)C(=O)N1)[C@@H](C)O)C(=O)N[C@@H](CC(C)C)C(=O)N[C@@H](CO)C(=O)N[C@@H](CCCNC(=N)N)C(=O)N[C@H](C(=O)N[C@@H](CC(N)=O)C(=O)N[C@H](C(=O)NCC(=O)N[C@@H](CO)C(=O)N[C@@H](CC(N)=O)C(=O)N[C@H](C(=O)N[C@@H](Cc1ccc(O)cc1)C(N)=O)[C@@H](C)O)C(C)C)[C@@H](C)O |  |  |  |  |  |  |  |  |  |  |  |  |  |  |  |  |  |  |  |  | Activity (Rattus norvegicus [25]): 46%; Activity (Rattus norvegicus [26]): 53%
